The target in one series is T1, Gal4-hRORγ (Homo sapiens, UniProt P51449).
T1 construct: Encodes for a hRORγ-LBD:Gal4-DBD fusion protein; expressed in transfected cells; host or cells: HEK293
T1 sequence (P51449 269-508 limits assumed): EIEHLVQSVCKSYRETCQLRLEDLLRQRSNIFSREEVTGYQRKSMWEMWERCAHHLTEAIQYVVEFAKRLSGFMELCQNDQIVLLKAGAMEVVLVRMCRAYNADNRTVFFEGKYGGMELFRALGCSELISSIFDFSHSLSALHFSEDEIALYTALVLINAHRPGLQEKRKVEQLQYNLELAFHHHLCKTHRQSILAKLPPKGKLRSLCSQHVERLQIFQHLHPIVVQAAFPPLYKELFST
Briefly: Gal4-RORγ mammalian one-hybrid luciferase assay. It is filed as cell-based. The following applies: HEK293 cells. As to the method: (§1) For luciferase assays, 8 × 10^6 HEK293 cells were seeded on 150 mm cell culture dishes and incubated for 5 h. Afterward, cells were transfected with the calcium phosphate coprecipitation method using 5 μg of the nuclear receptor (Gal4-hRORγ or full-length human RORγ), 5 μg of a luciferase reporter (pTK-MH100 × 4-LUC for Gal4-hRORγ experiments or RORE-LUC for full-length human RORγ experiments) and 3 μg eGFP-N1 (for assessing transfection efficiency) plasmid DNA and incubated overnight. […] The medium was changed the following day, and cells were further incubated for another four to 5 h before trypsin/EDTA was added to detach them from the dishes. […] RLUs were normalized to relative fluorescence units (RFU) to account for differences in cell number and transfection efficiency and then normalized to the vehicle control. Results are expressed as fold activation relative to the vehicle control.
Concentration–response data were analyzed in GraphPad Prism version 10 by three-parameter logistic nonlinear regression, with the Hill slope constrained to a theoretical value of −1.0. An IC50 value was determined only for compounds yielding a statistically reliable fit. […] In these cases, only the maximal inhibition achieved at the highest tested concentration (I max(%) at 5 μM) is reported, calculated as follows: Imax(%)=(1−Bottom/Top)×100 (“top” = baseline activity measured at the lowest concentration, “bottom” = residual activity observed at the highest concentration, corresponding to the maximal inhibitory effect).

Another series deals with T2, hRORγ LBD (Homo sapiens, UniProt P51449).
T2 construct: His tag (N, cleaved yes); made in house; host or cells: Escherichia coli BL21 DE3
T2 sequence (P51449 264-518): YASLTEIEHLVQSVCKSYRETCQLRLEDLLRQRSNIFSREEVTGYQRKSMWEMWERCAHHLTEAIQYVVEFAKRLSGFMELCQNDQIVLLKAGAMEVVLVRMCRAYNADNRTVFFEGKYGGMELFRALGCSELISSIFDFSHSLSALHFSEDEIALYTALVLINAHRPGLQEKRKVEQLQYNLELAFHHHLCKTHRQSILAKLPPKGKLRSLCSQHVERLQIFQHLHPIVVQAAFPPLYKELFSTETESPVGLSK
The series can be described thus: Thermal stability by nano differential scanning fluorimetry (nanoDSF). The class given is binding. The conditions noted are these: RORγ-LBD with 4 equiv ligand vs without ligand; mean ± SD. As to the method: Soluble proteins were purified on Ni Hitrap FFcrude column (Cytiva), followed by His tag removal by thrombin (MP Biomedicals) cleavage and by size exclusion chromatography on HiLoad Superdex200 column (Cytiva) equilibrated in 20 mM Tris-HCl pH 7.5, 150 mM NaCl, 1 mM TCEP (Hampton Research). Purity and homogeneity of the hRORγ LBD were assessed by SDS-PAGE. The purified protein was concentrated to 0.5–1.0 mg/mL with an Amicon Ultra 10 kDa MWCO. The aliquots of purified LBD were incubated with 4 equiv ligands or vehicle for thermal stability experiments.
Fluorescence-based thermal experiments were performed using a Prometheus NT.48 (NanoTemper Technologies, Germany) with grade standard capillaries containing 10 μL of RORγLBD with different ligands. […] NanoTemper PR. Stability Analysis v1.0.2 was used to fit the data and determine the melting temperatures Tm.

Series [1] has as its system interleukin 23 receptor (Il23r). The series can be described thus: RT-qPCR of Il23r in EL-4-mRORγt cells. The class given is cell-based, murine. The following applies: indicated concentrations, 20–24 h, then 4.5-h PMA and ionomycin. How it is done:
For RT-qPCR assays, 5 × 10^5 EL-4-mRORγt cells were seeded in 500 μL complete DMEM per well of a 24-well plate and treated with the vehicle control, the positive control, or the compounds of interest. After incubation for 20–24 h, cells were stimulated with Cell Activation Cocktail (PMA: 40.5 μM, ionomycin: 669.3 μM; 500X) for 4.5 h. Afterward, total RNA was isolated using the innuPREP RNA Mini Kit 2.0 according to the manufacturer’s instructions. According to the manufacturer’s instructions, 1 μg RNA was reverse-transcribed into cDNA using the High-Capacity cDNA Reverse Transcription Kit. RT-qPCR was performed using the Luna Universal qPCR Master Mix on a LightCycler 480 (Roche Diagnostics, Rotkreuz, Switzerland) according to the manufacturer’s instructions. […] Livak’s 2−ΔΔCt method was employed to determine the expression levels of RORγ target genes. This involved normalizing the target gene expression to the expression levels of the control gene 18s, followed by further normalization to the vehicle control.
(In general: Quantitative PCR measures a nucleic acid by following its amplification.)

A further series has as its target T3, luciferase (Photinus pyralis, UniProt P08659).
T3 construct: expressed in transfected cells; host or cells: HEK293
Briefly: Direct luciferase inhibition check (cells transfected only with pTK-MH100 × 4-LUC and eGFP-N1). The class given is cell-based. The conditions noted are these: 5 μM. How it is done: as §1

For another series, the system named is HEK293 cells. The series can be described thus: Resazurin conversion assay in HEK293 cells. The class given is cell-based, human. The conditions noted are these: 5 μM, 18 h. As to the method:
To check the metabolic activity of cells correlating with cell viability, cells were treated with the vehicle control (0.1% DMSO), digitonin as the positive control for cytotoxicity at 20 μg/mL (HEK293 cells) or 50 μg/mL (EL-4-mRORγt cells), or the compounds of interest at 5 μM for 18 h (HEK293 cells) or 20–24 h (EL-4-mRORγt cells). The next day, the medium was carefully removed and replaced with stripped DMEM without phenol red, containing 10 μg/mL resazurin sodium salt. Cells were incubated for 5 h before RFU values were measured at λem = 590 nm using a spectrophotometer. Cell viability was calculated as follows: Cell viability(%)=100×RFU value after compound treatment/RFU value after vehicle control treatment Cytotoxicity was defined as cell viability under 70% according to the ISO 10993–5 guidelines. Cell viability <90% is explicitly stated in the respective figure.
(In general: Alamar Blue is a resazurin reagent that responds to reducing activity.)

T3 sequence (P08659 whole entry): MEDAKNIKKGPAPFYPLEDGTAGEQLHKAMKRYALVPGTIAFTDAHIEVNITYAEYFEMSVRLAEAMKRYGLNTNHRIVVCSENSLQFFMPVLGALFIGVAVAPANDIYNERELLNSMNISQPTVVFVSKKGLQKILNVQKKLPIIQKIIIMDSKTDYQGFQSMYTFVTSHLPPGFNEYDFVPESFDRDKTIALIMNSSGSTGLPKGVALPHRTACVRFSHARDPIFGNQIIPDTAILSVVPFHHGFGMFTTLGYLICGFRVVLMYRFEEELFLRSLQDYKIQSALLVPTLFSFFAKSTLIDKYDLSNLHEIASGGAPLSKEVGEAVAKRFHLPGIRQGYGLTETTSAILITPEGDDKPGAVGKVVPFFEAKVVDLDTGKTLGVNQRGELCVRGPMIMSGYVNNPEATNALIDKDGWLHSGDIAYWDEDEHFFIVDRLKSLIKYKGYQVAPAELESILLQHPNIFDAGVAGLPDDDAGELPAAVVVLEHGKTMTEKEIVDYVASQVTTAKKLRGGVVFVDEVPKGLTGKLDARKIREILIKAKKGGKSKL

The term IC50 denotes the point on the concentration scale where inhibition reaches its midpoint. Consider `C=C(C)[C@@H]1CC[C@]2(C(=O)O)CC[C@]3(C)[C@H](CC[C@@H]4[C@@]5(C)C/C(=C/c6ccco6)C(=O)C(C)(C)[C@@H]5CC[C@]43C)[C@@H]12` [Compound 15, (2Z)-2-(2-furanylmethylene)-3-oxolup-20(29)-en-28-oic acid], for which the “Activity in Gal4-RORγ luciferase assay (initial screen)” value on Gal4-hRORγ (3 μM) is on record as “new inverse agonist of RORγ”. For the same molecule, the “Imax(%) at 5 μM, Gal4-RORγ luciferase assay” value at Gal4-hRORγ (5 μM) is 76%. At Gal4-hRORγ (18 h treatment, up to 5 μM), this molecule yielded a 50% inhibitory concentration (IC50) of 400 nM. The “ΔTm measured with nano differential scanning fluorimetry” value on hRORγ LBD worked out at 9.6 ± 0.4 °C. In addition, in series [1], the Il23r expression entry is “concentration-dependent down-regulation”. Further, at luciferase, the “Inhibition of luciferase enzyme activity” value is recorded as “did not inhibit luciferase enzyme activity”. Also, the “Cytotoxic effects, resazurin conversion assay” value in the series on HEK293 cells is on record as “no cytotoxic effects”.

The values above are taken from PMC12379159 (Journal of Natural Products, 2025).
